Source: PMC5218480 (PLoS ONE, 2017)

Test system: MV-4-11 cells
Assay: Gene expression microarray analysis (Affymetrix PrimeView) and GSEA
Assay type: cell-based, human
Design: RFU PODN (11730768_x_at) / Fold change /veh PODN (11730768_x_at) / RFU LINC00158 (11744669_a_at) / Fold change /veh LINC00158 (11744669_a_at) / RFU DUSP10 (11751237_a_at) / Fold change /veh DUSP10 (11751237_a_at) / RFU ID3 (11757404_x_at) / Fold change /veh ID3 (11757404_x_at) / RFU PLEKHG5 (11737974_s_at) / Fold change /veh PLEKHG5 (11737974_s_at) / RFU LRRC4B (11730491_at) / Fold change /veh LRRC4B (11730491_at) / RFU GIMAP4 (11747438_a_at) / Fold change /veh GIMAP4 (11747438_a_at) / RFU KRT8 (11758183_x_at) / Fold change /veh KRT8 (11758183_x_at) / RFU CNN1 (11734310_a_at) / Fold change /veh CNN1 (11734310_a_at) / RFU VPS37D (11726825_at) / Fold change /veh VPS37D (11726825_at) / RFU C10orf10 (11716522_x_at) / Fold change /veh C10orf10 (11716522_x_at) / RFU KIR2DL2 /// KIR2DL4 /// KIR2DL5A /// KIR2DL5B /// KIR2DS1 /// KIR2DS2 /// KIR2DS3 /// KIR2DS4 /// KIR3DL3 /// KIR3DL3 /// KIR3DS1 (11738374_at) / Fold change /veh KIR2DL2 /// KIR2DL4 /// KIR2DL5A /// KIR2DL5B /// KIR2DS1 /// KIR2DS2 /// KIR2DS3 /// KIR2DS4 /// KIR3DL3 /// KIR3DL3 /// KIR3DS1 (11738374_at) / RFU C1QL1 (11718748_at) / Fold change /veh C1QL1 (11718748_at) / RFU TMPRSS4 (11747572_a_at) / Fold change /veh TMPRSS4 (11747572_a_at) / RFU HAMP (11756126_x_at) / Fold change /veh HAMP (11756126_x_at) / RFU RNFT2 (11725882_a_at) / Fold change /veh RNFT2 (11725882_a_at) / RFU NR4A2 (11747474_a_at) / Fold change /veh NR4A2 (11747474_a_at) / RFU ABCC12 (11746883_a_at) / Fold change /veh ABCC12 (11746883_a_at) / RFU TMEM136 (11760407_x_at) / Fold change /veh TMEM136 (11760407_x_at) / RFU CLDN22 /// WWC2 (11732394_at) / Fold change /veh CLDN22 /// WWC2 (11732394_at) / RFU HLA-DPB1 (11760878_x_at) / Fold change /veh HLA-DPB1 (11760878_x_at) / RFU SPINT1 (11716480_a_at) / Fold change /veh SPINT1 (11716480_a_at) / RFU GAP43 (11754022_s_at) / Fold change /veh GAP43 (11754022_s_at) / RFU A4GNT (11735810_at) / Fold change /veh A4GNT (11735810_at) / RFU PRB3 (11715151_x_at) / Fold change /veh PRB3 (11715151_x_at) / RFU TUBB4B (11761932_at) / Fold change /veh TUBB4B (11761932_at) / RFU CAPN14 (11732068_a_at) / Fold change /veh CAPN14 (11732068_a_at) / RFU TMCC2 (11721928_a_at) / Fold change /veh TMCC2 (11721928_a_at) / RFU IRGQ (11745062_a_at) / Fold change /veh IRGQ (11745062_a_at) / RFU FAM174B (11720279_a_at) / Fold change /veh FAM174B (11720279_a_at) / RFU TMPRSS4 (11748680_a_at) / Fold change /veh TMPRSS4 (11748680_a_at) / RFU FAM212B (11763350_a_at) / Fold change /veh FAM212B (11763350_a_at) / RFU PLEKHG5 (11743358_a_at) / Fold change /veh PLEKHG5 (11743358_a_at) / RFU ZSCAN30 (11745921_a_at) / Fold change /veh ZSCAN30 (11745921_a_at) / RFU CMKLR1 (11741424_a_at) / Fold change /veh CMKLR1 (11741424_a_at) / RFU LOC101060620 /// MAPK8IP1 (11723275_at) / Fold change /veh LOC101060620 /// MAPK8IP1 (11723275_at) / RFU SPTSSB (11747773_x_at) / Fold change /veh SPTSSB (11747773_x_at) / RFU PRSS12 (11739890_at) / Fold change /veh PRSS12 (11739890_at) / RFU BIN1 (11741810_x_at) / Fold change /veh BIN1 (11741810_x_at) / RFU WNT11 (11732464_a_at) / Fold change /veh WNT11 (11732464_a_at) / RFU C10orf10 (11716521_a_at) / Fold change /veh C10orf10 (11716521_a_at) / RFU C5orf56 (11738089_at) / Fold change /veh C5orf56 (11738089_at) / RFU CYB561 (11721691_x_at) / Fold change /veh CYB561 (11721691_x_at) / RFU ANKRD19P (11752326_a_at) / Fold change /veh ANKRD19P (11752326_a_at) / RFU OR2T12 /// OR2T33 /// OR2T8 (11738714_s_at) / Fold change /veh OR2T12 /// OR2T33 /// OR2T8 (11738714_s_at) / RFU VCAN (11748164_a_at) / Fold change /veh VCAN (11748164_a_at) / RFU JSRP1 (11732532_at) / Fold change /veh JSRP1 (11732532_at) / RFU KRTAP10-11 (11738290_x_at) / Fold change /veh KRTAP10-11 (11738290_x_at) / RFU MYO3A (11730013_a_at) / Fold change /veh MYO3A (11730013_a_at) / RFU EBF3 (11725865_a_at) / Fold change /veh EBF3 (11725865_a_at) / RFU CAMK2N1 (11719241_x_at) / Fold change /veh CAMK2N1 (11719241_x_at) / RFU C5orf56 (11738088_a_at) / Fold change /veh C5orf56 (11738088_a_at) / RFU OLFML3 (11715873_a_at) / Fold change /veh OLFML3 (11715873_a_at) / RFU LOC100653217 /// NTM (11731650_a_at) / Fold change /veh LOC100653217 /// NTM (11731650_a_at) / RFU MAPK11 (11762145_a_at) / Fold change /veh MAPK11 (11762145_a_at) / RFU FIZ1 (11724087_x_at) / Fold change /veh FIZ1 (11724087_x_at) / RFU OASL (11726364_x_at) / Fold change /veh OASL (11726364_x_at) / RFU SOX15 (11748057_x_at) / Fold change /veh SOX15 (11748057_x_at) / RFU CD79A (11719716_a_at) / Fold change /veh CD79A (11719716_a_at) / RFU HIST1H1D (11736915_at) / Fold change /veh HIST1H1D (11736915_at) / RFU CASKIN2 (11723855_a_at) / Fold change /veh CASKIN2 (11723855_a_at) / RFU LOC730098 (11760151_x_at) / Fold change /veh LOC730098 (11760151_x_at) / RFU OR4N2 (11742367_at) / Fold change /veh OR4N2 (11742367_at) / RFU PRRT2 (11749266_a_at) / Fold change /veh PRRT2 (11749266_a_at) / RFU SNX32 (11753110_a_at) / Fold change /veh SNX32 (11753110_a_at) / RFU CDHR5 (11726645_a_at) / Fold change /veh CDHR5 (11726645_a_at) / RFU RCAN1 (11760418_a_at) / Fold change /veh RCAN1 (11760418_a_at) / RFU FAM167A (11723789_a_at) / Fold change /veh FAM167A (11723789_a_at) / RFU FAM26E (11764081_at) / Fold change /veh FAM26E (11764081_at) / RFU ISYNA1 (11749810_s_at) / Fold change /veh ISYNA1 (11749810_s_at) / RFU ACY1 (11761880_at) / Fold change /veh ACY1 (11761880_at) / RFU 11764098_at / Fold change /veh 11764098_at / RFU SAMD14 (11745864_x_at) / Fold change /veh SAMD14 (11745864_x_at) / RFU NPB (11741838_a_at) / Fold change /veh NPB (11741838_a_at) / RFU TMPRSS6 (11731388_a_at) / Fold change /veh TMPRSS6 (11731388_a_at) / RFU KRTAP10-2 (11738614_at) / Fold change /veh KRTAP10-2 (11738614_at) / RFU ARHGAP8 /// PRR5-ARHGAP8 (11727945_x_at) / Fold change /veh ARHGAP8 /// PRR5-ARHGAP8 (11727945_x_at) / RFU KRTAP5-7 /// NADSYN1 (11734609_at) / Fold change /veh KRTAP5-7 /// NADSYN1 (11734609_at) / RFU RASL12 (11751679_a_at) / Fold change /veh RASL12 (11751679_a_at) / RFU CDKN2B (11736163_a_at) / Fold change /veh CDKN2B (11736163_a_at) / RFU PRF1 (11729649_at) / Fold change /veh PRF1 (11729649_at) / RFU, ZNF638 /// ZNF638-IT1 / Fold change vs veh, ZNF638 /// ZNF638-IT1 / RFU, PANK3 / Fold change vs veh, PANK3 / RFU, SH3YL1 / Fold change vs veh, SH3YL1 / RFU, ZEB2 / Fold change vs veh, ZEB2 / RFU, NRIP1 / Fold change vs veh, NRIP1 / RFU, PTTG1IP / Fold change vs veh, PTTG1IP / RFU, CAPN2 / Fold change vs veh, CAPN2 / RFU, MED14 / Fold change vs veh, MED14 / RFU, SNORA58 / Fold change vs veh, SNORA58 / RFU, C1orf63 / Fold change vs veh, C1orf63 / RFU, LRRFIP1 / Fold change vs veh, LRRFIP1 / RFU, NDUFAF7 / Fold change vs veh, NDUFAF7 / RFU, SLC12A2 / Fold change vs veh, SLC12A2 / RFU, IBTK / Fold change vs veh, IBTK / RFU, ESF1 / Fold change vs veh, ESF1 / Fold change vs veh, TMEM50B / RFU, TAOK1 / Fold change vs veh, TAOK1 / RFU, ACBD3 / Fold change vs veh, ACBD3 / RFU, TMA16 / Fold change vs veh, TMA16 / RFU, RWDD3 / Fold change vs veh, RWDD3 / RFU, BCAT1 / Fold change vs veh, BCAT1 / RFU, EDEM3 / Fold change vs veh, EDEM3 / RFU, TMEM33 / Fold change vs veh, TMEM33 / RFU, WDR75 / Fold change vs veh, WDR75 / RFU, AHCTF1 / Fold change vs veh, AHCTF1 / RFU, TFRC / Fold change vs veh, TFRC / RFU, ZDHHC17 / Fold change vs veh, ZDHHC17 / RFU, NOM1 / Fold change vs veh, NOM1 / RFU, ARL8B / Fold change vs veh, ARL8B / RFU, ZBTB11 / Fold change vs veh, ZBTB11 / RFU, TAMM41 / Fold change vs veh, TAMM41 / RFU, KIAA1704 /// LOC100996395 / Fold change vs veh, KIAA1704 /// LOC100996395 / RFU, ING1 / Fold change vs veh, ING1 / RFU, TRMT61B / Fold change vs veh, TRMT61B / RFU, FUBP3 / Fold change vs veh, FUBP3 / RFU, TP53 / Fold change vs veh, TP53 / RFU, TNKS2 / Fold change vs veh, TNKS2 / RFU, ZFP14 / Fold change vs veh, ZFP14 / RFU, ACTR2 / Fold change vs veh, ACTR2 / RFU, PPP3R1 / Fold change vs veh, PPP3R1 / RFU, PIK3R1 / Fold change vs veh, PIK3R1 / RFU, HNRNPA1 / Fold change vs veh, HNRNPA1 / RFU, RNF170 / Fold change vs veh, RNF170 / RFU, ZNF28 / Fold change vs veh, ZNF28 / RFU, RNGTT / Fold change vs veh, RNGTT / RFU, OGT / Fold change vs veh, OGT / RFU, BRD1 / Fold change vs veh, BRD1 / RFU, MARS / Fold change vs veh, MARS / RFU, ZNF655 / Fold change vs veh, ZNF655 / RFU, FAHD1 / Fold change vs veh, FAHD1 / RFU, BDP1 / Fold change vs veh, BDP1 / RFU, LRRCC1 / Fold change vs veh, LRRCC1 / RFU, ARID1A / Fold change vs veh, ARID1A / RFU, ZNF146 / Fold change vs veh, ZNF146 / RFU, ZNF330 / Fold change vs veh, ZNF330 / RFU, GPN3 / Fold change vs veh, GPN3 / RFU, C9orf123 / Fold change vs veh, C9orf123 / RFU, N4BP2L2 / Fold change vs veh, N4BP2L2 / RFU, ARFIP1 / Fold change vs veh, ARFIP1 / RFU, FAM179B / Fold change vs veh, FAM179B / RFU, BCL10 / Fold change vs veh, BCL10 / RFU, UHRF1BP1L / Fold change vs veh, UHRF1BP1L / RFU, BET1 / Fold change vs veh, BET1 / RFU, CNOT2 / Fold change vs veh, CNOT2 / RFU, ZNF268 / Fold change vs veh, ZNF268 / Fold change vs veh, ZNF507 / RFU, DGCR2 / Fold change vs veh, DGCR2 / RFU, WDSUB1 / Fold change vs veh, WDSUB1 / Fold change vs veh, HSP90B1 /// MIR3652 / RFU, ADSS / Fold change vs veh, ADSS / RFU, GK / Fold change vs veh, GK / RFU, ZNF148 / Fold change vs veh, ZNF148 / RFU, TAF9 / Fold change vs veh, TAF9 / RFU, SLC1A5 / Fold change vs veh, SLC1A5 / RFU, SLMO2 / Fold change vs veh, SLMO2 / RFU, ABCC4 / Fold change vs veh, ABCC4 / RFU, LOC101060439 /// RAP1B / Fold change vs veh, LOC101060439 /// RAP1B / RFU, RFX7 / Fold change vs veh, RFX7 / RFU, GTPBP10 / Fold change vs veh, GTPBP10 / RFU, CNEP1R1 / Fold change vs veh, CNEP1R1 / RFU, BIVM-ERCC5 /// ERCC5 / Fold change vs veh, BIVM-ERCC5 /// ERCC5 / RFU, ILF3 / Fold change vs veh, ILF3 / RFU 11762660_at / Fold change /veh 11762660_at / RFU VCAN (11757783_s_at) / Fold change /veh VCAN (11757783_s_at) / RFU DDX43 (11728927_at) / Fold change /veh DDX43 (11728927_at) / RFU KRT8 (11758188_x_at) / Fold change /veh KRT8 (11758188_x_at) / RFU NKD1 (11759106_at) / Fold change /veh NKD1 (11759106_at) / RFU SRD5A1 (11742802_a_at) / Fold change /veh SRD5A1 (11742802_a_at) / RFU TPSAB1 /// TPSB2 (11721975_s_at) / Fold change /veh TPSAB1 /// TPSB2 (11721975_s_at) / RFU GSTM3 (11746129_a_at) / Fold change /veh GSTM3 (11746129_a_at) / RFU IL23R (11737362_x_at) / Fold change /veh IL23R (11737362_x_at) / RFU TMEM51 (11727254_a_at) / Fold change /veh TMEM51 (11727254_a_at) / RFU PIWIL2 (11732686_x_at) / Fold change /veh PIWIL2 (11732686_x_at) / RFU ORM1 (11744905_x_at) / Fold change /veh ORM1 (11744905_x_at) / RFU CCDC152 (11743942_at) / Fold change /veh CCDC152 (11743942_at) / RFU ECM1 (11717891_a_at) / Fold change /veh ECM1 (11717891_a_at) / RFU IL23R (11748794_a_at) / Fold change /veh IL23R (11748794_a_at) / RFU TNFAIP8L3 (11732012_x_at) / Fold change /veh TNFAIP8L3 (11732012_x_at) / RFU MBOAT4 (11741988_at) / Fold change /veh MBOAT4 (11741988_at) / RFU 11764193_at / Fold change /veh 11764193_at / RFU TMEM53 (11763286_at) / Fold change /veh TMEM53 (11763286_at) / RFU MAGEB2 (11727129_at) / Fold change /veh MAGEB2 (11727129_at) / RFU TMEM200A (11744735_a_at) / Fold change /veh TMEM200A (11744735_a_at) / RFU CCDC152 (11751479_a_at) / Fold change /veh CCDC152 (11751479_a_at) / RFU FAM211A (11726209_a_at) / Fold change /veh FAM211A (11726209_a_at) / RFU RGS16 (11746705_a_at) / Fold change /veh RGS16 (11746705_a_at) / RFU VCAN (11755009_s_at) / Fold change /veh VCAN (11755009_s_at) / RFU RHOB (11743442_s_at) / Fold change /veh RHOB (11743442_s_at) / RFU RGS16 (11720943_a_at) / Fold change /veh RGS16 (11720943_a_at) / RFU RGS16 (11720944_at) / Fold change /veh RGS16 (11720944_at) / RFU, VPS4B / Fold change vs veh, VPS4B / RFU, CREB1 / Fold change vs veh, CREB1 / RFU, DNAJC13 / Fold change vs veh, DNAJC13 / RFU, GNAQ / Fold change vs veh, GNAQ / RFU, CDK5R1 / Fold change vs veh, CDK5R1 / RFU, ZRANB3 / Fold change vs veh, ZRANB3 / RFU, CUL4A / Fold change vs veh, CUL4A / RFU, CCNY / Fold change vs veh, CCNY / RFU, UFL1 / Fold change vs veh, UFL1 / RFU, COG3 / Fold change vs veh, COG3 / RFU, DIAPH2 / Fold change vs veh, DIAPH2 / RFU, SKA2 / Fold change vs veh, SKA2 / RFU, AFF3 / Fold change vs veh, AFF3 / RFU, LMF1 / Fold change vs veh, LMF1 / RFU, IPO11 / Fold change vs veh, IPO11 / RFU, DFFB / Fold change vs veh, DFFB / RFU, FOXP1 / Fold change vs veh, FOXP1 / RFU, CARD8 / Fold change vs veh, CARD8 / RFU, STRN3 / Fold change vs veh, STRN3 / RFU, ADK / Fold change vs veh, ADK / RFU, RASSF2 / Fold change vs veh, RASSF2 / RFU, WIPF1 / Fold change vs veh, WIPF1 / RFU, LARP1B / Fold change vs veh, LARP1B / RFU, RASA1 / Fold change vs veh, RASA1 / RFU, RB1 / Fold change vs veh, RB1 / RFU, PPFIA1 / Fold change vs veh, PPFIA1 / RFU, MAT2A / Fold change vs veh, MAT2A / RFU, CCT5 / Fold change vs veh, CCT5 / RFU, WDR92 / Fold change vs veh, WDR92 / RFU, CUX1 / Fold change vs veh, CUX1 / RFU, TTC7A / Fold change vs veh, TTC7A / RFU, TMEM135 / Fold change vs veh, TMEM135 / RFU, DEPTOR / Fold change vs veh, DEPTOR / RFU, CPM / Fold change vs veh, CPM / RFU, DNAJB6 / Fold change vs veh, DNAJB6 / RFU, CACNA2D3 / Fold change vs veh, CACNA2D3 / RFU, DTX4 / Fold change vs veh, DTX4 / RFU, TFCP2 / Fold change vs veh, TFCP2 / RFU, GMCL1 /// GMCL1P1 / Fold change vs veh, GMCL1 /// GMCL1P1 / RFU, AEBP2 / Fold change vs veh, AEBP2 / RFU, SNHG1 /// SNORD22 /// SNORD25 /// SNORD26 /// SNORD27 /// SNORD28 /// SNORD29 /// SNORD31 / Fold change vs veh, SNHG1 /// SNORD22 /// SNORD25 /// SNORD26 /// SNORD27 /// SNORD28 /// SNORD29 /// SNORD31 / Fold change (Aza/veh), C12orf56 (ProbeSet 11735607_a_at) / Fold change (ACY-1035/veh), C12orf56 (ProbeSet 11735607_a_at) / Fold change (Aza/veh), FGFR1OP (ProbeSet 11751329_s_at) / Fold change (ACY-1035/veh), FGFR1OP (ProbeSet 11751329_s_at) / Fold change (Aza/veh), VPS36 (ProbeSet 11739960_a_at) / Fold change (ACY-1035/veh), VPS36 (ProbeSet 11739960_a_at) / RFU SYPL1 (11715823_x_at) / Fold change /veh SYPL1 (11715823_x_at) / RFU IGFBP7 (11715501_s_at) / Fold change /veh IGFBP7 (11715501_s_at) / RFU REEP3 (11722064_at) / Fold change /veh REEP3 (11722064_at) / RFU IGLL1 (11728026_x_at) / Fold change /veh IGLL1 (11728026_x_at): dose or concentration left out as unconfirmed
Conditions: ProbeSet 11747889_x_at; LIST B

Nc1ncn([C@@H]2O[C@H](CO)[C@@H](O)[C@H]2O)c(=O)n1 [azacitidine]
Fold change vs veh, SH3YL1: 0.87
